From US20030211076A1, “Compositions and methods for treatment of proliferative disorders” (priority 2003, published 2003)
Entries after “also recorded” stand apart in the source; their conditions may differ.

Assays:
[1] = test system: growth-arrested Swiss 3T3 cells; test: FGF2-stimulated cell cycle progression, FACS analysis; format: cell-based
Experimental: The activity of native and LO-oxidized FGF2 on cell cycle progression was evaluated by using fluorescence activated cell sorting (FACS) analysis (Darzynkiewicz et al.). Swiss 3T3 cells were growth-arrested by incubation in 0.3% fetal bovine serum (FBS)/Dulbecco's Modified Eagle's Medium (DMEM) for 3 days. As depicted in FIGS. 6A-6C, the prepared growth-arrested cells were treated for 20 h at 37° C. with or without FGF2, LO, BAPN or their combinations as indicated. After treatment, cells were washed, suspended by treatment with trypsin, washed again and fixed in 0.5% formaldehyde/0.1% Triton X-100/PBS for 15 minutes on ice followed by incubation of samples in 10 μg propidium iodide and 20 units RNAse per ml of PBS for 60 minutes in the dark for DNA staining. The fluorescence intensities of each sample of 10,000 cells in G1, S and G2/M phases were measured by flow cytometry at the FL2 setting of the fluorescence activated cell sorting (FACS) instrument (Becton-Dickinson Corp.). […] LO was presented at 10 nM, FGF2 at 5 ng ml^−1 and BAPN at 100 μM. Data represent the means (+sd) of three separate experiments each assessed with duplicate dishes.

[2] = test system: ERK1 and ERK2 MAP kinases; test: FGF2-stimulated MAP kinase phosphorylation, Western blot; format: cell-based
Experimental: Since activation of MAP kinases by FGF2 is one of the earliest mitogenic signaling events within cells (Maher), the effects of LO on FGF2-stimulated MAP kinase phosphorylation were tested by Western blot analysis using an antibody specific for phospho-extracellular signal-regulated kinases 1 and 2 (ERK1 and ERK2). The amount of total ERK1 and ERK2 MAP kinases within the same cell extracts was determined by using an antibody that recognizes both the phospho- and non-phospho-forms of ERK1 and ERK2. […] Cell extracts were prepared and equal amounts of proteins (25 μg) were analyzed by 10% SDS-PAGE. Immunoblotting was performed using antibodies specific for the active forms of ERK1 and ERK2 (A) and total ERKs (B).

[3] = test system: intracellular FGF2 in NIH 3T3 6-1 cells; test: Intracellular FGF2 crosslinking by LO, Western blotting with monoclonal anti-FGF2; format: cell-based, mouse
Experimental: The possibility that exposure of cells to LO alters the physical state of intracellular FGF2 was assessed by Western blotting with monoclonal anti-FGF2 of cell lysates. Subconfluent NIH 3T3 and NIH 3T3 6-1 cells were incubated for 20 h in 0.3% FBS/DMEM with or without additives as indicated below. Cells were suspended by trypsin treatment and lysed. Aliquots of lysates containing 50 μg of cell protein were analyzed by Western blotting of SDS-PAGE electrophoretograms probing with monoclonal anti-FGF2 (FIGS. 11A and 11B). Total protein was visualized by Coomassie blue staining of SDS-PAGE electrophoretograms (FIG. 11C). FIG. 11A represents FGF2 expression in NIH 3T3 (lane 1) and NIH 3T3 6-1 cells (lane 2). FIG. 11B represents forms of intracellular FGF2 in NIH 3T3 6-1 cells incubated in the absence (lane 1) or presence of 25 nM LO (lane 2) or presence of 25 nM LO which had been preincubated with 100 μM BAPN for 15 min at 37° C. (lane 3). FIG. 11C represents the total protein profiles in control and LO-treated cells with treatments in each lane corresponding to those in FIG. 11B.

[4] = test system: FGF2 nuclear localization in Swiss 3T3 cells; test: FGF2 nuclear localization, immunochemical staining; format: cell-based
Experimental: After endocytosis, a fraction of exogenous FGF2 can enter the nucleus of a variety of cell types in a cell cycle-dependent manner (Mason; Rifkin et al.; Prats et al.; Stachowiak et al., 1996; Arese et al.; Baldin et al.). Thus, the possibility that oxidation of FGF2 by LO affects the nuclear localization of this growth factor was tested by using immunochemistry. In FIGS. […]

[5] = test system: porcine pulmonary arterial vascular endothelial cells (VEC); test: Growth of Tat-stimulated vascular endothelial cells (cell counting, phase-contrast microscopy); format: cell-based
Experimental: Stimulation of cell proliferation of porcine pulmonary arterial vascular endothelial cells (VEC) was tested with LO-oxidized Tat. VEC (2×10^4) were plated and incubated overnight in 35 mm-dishes containing 2 ml 15% FBS/M199 medium, and then refed with 5% FBS/M199 with different treatment regimens as shown in A, B and C of FIG. 13. FIG. 13A represents a dose response of Tat-stimulated cell growth. Media were supplemented with Tat at the indicated doses and cells were incubated for additional 3 days. Cultures were refed once during the incubation period with fresh media supplemented with Tat at indicated doses. Cells were harvested by trypsinization and counted with a hemacytometer. FIG. 13B represents the LO inhibition of Tat-stimulated cell growth. FIG. 13C represents the effects of inactivation of LO by BAPN on Tat-stimulated cell growth. LO: 3 or 10 nM, Tat: 10 ng ml^−1, BAPN: 100 μM. Data represent the means (±sd) of three separate experiments each assessed with triplicate dishes.
Numerical and morphological alterations in Tat-stimulated VEC cells treated with LO were observed under phase-contrast microscopy (25'). Cells were cultured as described in FIG. 13 and treated with additives as indicated below. The following represents FIG. 14 phase contrast microscopy: A, control; B, 10 ng ml^−1Tat; C, 10 ng ml^−1 Tat+3 nM LO; D, 10 ng ml^−1 Tat+3 nM LO that was preincubated with 100 μM BAPN for 15 min at 370; E, 100 μM BAPN, alone, and F, 3 nM LO, alone.

VEC on Matrigel = test: Time course of angiogenic response of VEC on Matrigel without Tat stimulation; format: cell-based; settings: 6, 24 and 48 h
Experimental: Time course studies on inhibition by LO of angiogenic response of VEC on Matrigel without Tat stimulation was also investigated. Cells (3×10^5) were plated on Matrigel-coated dishes. After 1 h incubation, various reagents were added to each culture. […] At each time point, a, control; b,10 nM LO; c,10 nM LO that was preincubated with 100 μM BAPN for 15 min at 37°; d, 100 μM BAPN, alone.

Compound | response relative to that observed with FGF2 alone ([1]; FGF2 5 ng/ml treated with 10 nM LO and 100 μM BAPN) [%] | effect on LO inhibition of FGF2 activation of MAP kinases ([2]; 5 ng/ml FGF2 + 10 nM LO + 100 μM BAPN) | state of phosphorylation of MAP kinases ([2]; 100 μM BAPN alone) | effect on LO-induced FGF2 oligomer formation ([3]; 25 nM LO preincubated with 100 μM BAPN for 15 min at 37° C.) | effect on LO inhibition of nuclear translocation of FGF2 ([4]; 100 μM BAPN with LO and FGF2) | FGF2 transport to the nucleolus ([4]; BAPN in the absence of added LO) | cell growth ([5]; 100 μM BAPN alone) | effect on LO inhibition of Tat-stimulated cell growth ([5]; 100 μM BAPN, LO 3 or 10 nM, Tat 10 ng/ml) | organization of VEC to form capillary-like structure (VEC on Matrigel; 100 μM BAPN alone) | maximal decrease of FGF2 stimulation of cell cycle progression ([1]; 10 nM (0.32 μg/ml) LO, 0.28 nM FGF2) [%] | levels of phospho-MAP kinases ([2]; 5 ng/ml FGF2 and 10 nM LO, 10 min) | levels of phospho-ERK1/2 ([2]; 10 nM LO without BAPN or FGF2) | forms of intracellular FGF2 ([3]; 25 nM LO, 20 h) | levels of nuclear FGF2 ([4]; LO in the absence of exogenous FGF2 or BAPN) | intranuclear FGF2 ([4]; simultaneously incubated with FGF2 and 10 nM LO) | Tat-dependent cell proliferation ([5]; LO at 3 nM, Tat 10 ng/ml) | cell numbers ([5]; LO at doses ≧10 nM, Tat 10 ng/ml) | organization of VEC to form capillary-like structure (VEC on Matrigel; 10 nM LO preincubated with 100 μM BAPN (BAPN-inactivated)) | organization of VEC to form capillary-like structure (VEC on Matrigel; 10 nM active LO)
N#CCCN [BAPN, β-Aminopropionitrile, reference compound] | 82±6 | abolished | did not affect | prevented | prevented | increased FGF2 transport to the nucleolus | had no effect on the cell growth | totally inhibited; also recorded: cells sustained growth to confluence | did not have significant effects |  |  |  |  |  |  |  |  |  | 
lysyl oxidase [LO] |  |  |  |  |  |  |  |  |  | 80 | reduced | slightly increased | induced the formation of crosslinked dimers and oligomers of FGF2 within the cells | reduced levels of nuclear FGF2 | did not exhibit enhanced levels of intranuclear FGF2 | effectively suppressed the Tat-dependent cell proliferation to the control level; also recorded: the growth stimulating ability of Tat was inhibited | severe loss in cell numbers below the control | strong inhibitory effects | strong inhibitory effects
